Reference: patent US20080213815A1, “DIAGNOSING BREAST CANCER BY SEPRASE LEVEL” (DUBLIN CITY UNIVERSITY, priority 2007, published 2008)
Read-outs that look alike come from different tables or passages of the source. Where a SMILES comes first, the peptide text is derived from it. The star is where a group is joined. AFC = O=c1cc(C(F)(F)F)c2ccc(N*)cc2o1

Legend:
[1] = target: T1, Seprase (Homo sapiens, UniProt Q12884); experiment: Seprase activity towards fluorogenic substrates; type: biochemical; details: compared with substrate Z-Gly-Pro-AMC
T1 sequence (Q12884 1-760): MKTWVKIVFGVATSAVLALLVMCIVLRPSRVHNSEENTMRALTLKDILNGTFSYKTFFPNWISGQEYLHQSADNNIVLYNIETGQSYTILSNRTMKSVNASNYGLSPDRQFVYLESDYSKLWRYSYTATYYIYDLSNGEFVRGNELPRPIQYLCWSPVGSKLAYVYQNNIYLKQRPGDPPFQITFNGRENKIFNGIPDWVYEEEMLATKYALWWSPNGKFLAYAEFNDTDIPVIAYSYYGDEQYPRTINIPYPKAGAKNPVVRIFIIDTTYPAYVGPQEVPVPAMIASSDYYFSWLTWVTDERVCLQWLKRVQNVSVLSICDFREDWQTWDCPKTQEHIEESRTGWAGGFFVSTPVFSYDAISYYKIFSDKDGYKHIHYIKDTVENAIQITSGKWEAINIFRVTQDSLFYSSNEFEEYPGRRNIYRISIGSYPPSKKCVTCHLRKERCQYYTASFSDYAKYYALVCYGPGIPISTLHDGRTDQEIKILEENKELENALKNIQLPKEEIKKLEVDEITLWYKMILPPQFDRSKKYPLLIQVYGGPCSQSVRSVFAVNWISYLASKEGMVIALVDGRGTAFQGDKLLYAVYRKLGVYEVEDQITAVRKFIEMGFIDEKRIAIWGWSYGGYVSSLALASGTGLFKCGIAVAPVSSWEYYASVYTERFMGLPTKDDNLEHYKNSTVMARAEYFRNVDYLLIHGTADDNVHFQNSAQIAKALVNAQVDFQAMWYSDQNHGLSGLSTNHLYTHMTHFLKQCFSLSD
From the text: The substrate used for the test is Benzyloxycarbonyl (Z)-Gly-Pro-7-amino-4-methylcoumarin (AMC) [Z-Gly-Pro-AMC]. […] This substrate is for a completely different enzyme, namely DPPII.

[2] = target: T2, Prolyl Oligopeptidase (Homo sapiens, UniProt P48147)
T2 sequence (P48147 1-710): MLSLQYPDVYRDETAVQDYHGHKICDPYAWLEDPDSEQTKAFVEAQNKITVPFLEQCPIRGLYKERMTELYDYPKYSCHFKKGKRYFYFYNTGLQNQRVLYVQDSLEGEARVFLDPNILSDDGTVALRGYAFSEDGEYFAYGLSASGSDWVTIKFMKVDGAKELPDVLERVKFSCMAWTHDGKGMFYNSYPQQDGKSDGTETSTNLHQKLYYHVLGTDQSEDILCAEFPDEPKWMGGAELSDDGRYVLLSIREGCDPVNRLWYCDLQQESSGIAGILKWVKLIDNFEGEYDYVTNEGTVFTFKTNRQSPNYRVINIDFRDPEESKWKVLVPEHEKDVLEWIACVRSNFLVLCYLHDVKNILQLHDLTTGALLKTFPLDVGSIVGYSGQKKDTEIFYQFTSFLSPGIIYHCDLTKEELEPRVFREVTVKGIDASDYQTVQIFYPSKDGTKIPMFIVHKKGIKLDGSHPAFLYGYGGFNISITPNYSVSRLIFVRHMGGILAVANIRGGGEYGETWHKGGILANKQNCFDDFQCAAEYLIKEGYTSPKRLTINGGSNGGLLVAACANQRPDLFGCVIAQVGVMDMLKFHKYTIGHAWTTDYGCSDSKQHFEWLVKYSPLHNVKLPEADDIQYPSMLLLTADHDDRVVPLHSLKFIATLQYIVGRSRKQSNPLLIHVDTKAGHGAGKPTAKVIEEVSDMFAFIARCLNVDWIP

[3] = target: T3, PO (Prolyl Oligopeptidase) (Homo sapiens, UniProt P48147); experiment: Fluorimetric Z-Gly-Pro-AMC assay in serum with PO inhibitor; type: biochemical; details: JTP-4819 at a concentration of 4×10^−6M in the assay; 100 μM Z-Gly-Pro-AMC, 37° C.
T3 construct: from tissue; host or cells: serum
T3 sequence (P48147 1-710): T2 sequence (P48147 1-710)
Description: A 25 μl aliquot of serum was pre-incubated for 15 minutes at 37° C. with 5 μl of 2.5×10^−4M JTP-4819 in 10% v/v MeOH in a 96 well microtitre plate prior to substrate addition. Next, 100 μl of 100μM Z-Gly-Pro-AMC substrate in 4% MeOH was added to the sample and the microtitre plate was incubated at 37° C. for 60 mins. Reactions were terminated by the addition of 170 μl of 1.5M acetic acid. Blanks or negative controls were prepared by adding 170 μl of 1.5M acetic acid to 25 μl of enzyme sample prior to substrate addition and incubation at 37° C. for 60 mins. The assay is performed in triplicate and at three different times. […] This concentration is obtained by adding 5 μl of 2.5×10^−4 M JTP-4819 to the assay.
Fluorimetric analysis of these samples was achieved using a Perkin Elmer LS50 Fluorescence Spectrophotometer at excitation and emission wavelengths of 370 nm and 440 nm respectively. Excitation slit widths were maintained at 10 nm while emission slit widths were adjusted accordingly for the range being analysed.
End point measurements were allowed, as the enzyme assay was linear with respect to time and enzyme concentration up to 60 mins. Fluorimetric intensities observed were converted to nanomoles AMC released per minute per ml using the appropriate standard curve. Enzyme units were defined as nanomoles of AMC released per minute at 37° C.

[4] = Prolyl Oligopeptidase specific inhibitors, Table 5, Bacterial Inhibitor; cited from earlier work
[5] = Prolyl Oligopeptidase specific inhibitors, Table 5; read-out: Potency Ki; cited from earlier work
[6] = Prolyl Oligopeptidase specific inhibitors, Table 5; read-out: Potency IC50; cited from earlier work

Q: Which “Seprase activity towards substrate” value [1] does the source give for C[C@H](N)C(=O)N1CCC[C@H]1C(=O)Nc1ccc2c(C(F)(F)F)cc(=O)oc2c1 [Ala-Pro-7-amino-4-trifluoromethylcoumarin] (H-Ala-Pro-{AFC}) here?
A: The value was “markedly less activity”.

Q: With CC(C)CC/C=C/C(=O)NC1CCCNC(=O)C(CC(C)C)NC(=O)C(=O)C(C)NC1=O (stereo not drawn) [Eurystatin A] as the compound, how does the “Potency IC50” value [2, 4] read?
A: Its value is “IC50 = 0.004 μg/mL”.

Q: With CCC(C)CC/C=C/C(=O)NC1CCCNC(=O)C(CC(C)C)NC(=O)C(=O)C(C)NC1=O (stereo not drawn) [Eurystatin B] as the compound, how does the “Potency IC50” value [2, 4] read?
A: Its value is “IC50 = 0.002 μg/mL”.

Q: Which Ki [2, 5] does the source give for CC(NC(=O)OCC1c2ccccc2-c2ccccc21)C(=O)N1CCCC1C#N (stereo not drawn) [Fmoc-Ala-Pro-CN] here?
A: Its Ki is 5 nM.

Q: With N#CC1CCCN1C(=O)C1CCCN1C(=O)OCC1c2ccccc2-c2ccccc21 (stereo not drawn) [Fmoc-Pro-Pro-CN] as the compound, how does the Ki [2, 5] read?
A: Its Ki is 5 nM.

Q: For O=C(CO)[C@@H]1CCCN1C(=O)[C@@H]1CCCN1C(=O)NCc1ccccc1 [JTP-4819], which “PO sensitivity to inhibitor” value [3] is on record?
A: The value was “sensitive”.

Q: What about the IC50 [2, 6] of the same compound?
A: The IC50 was 0.83 nM.

Q: And the Ki [2, 5]?
A: Its Ki is 0.045 nM.

Q: Which IC50 [2, 6] does the source give for O=C[C@@H]1CCCN1C(=O)CCC(=O)NCc1ccc(Cl)cc1 [ONO-1603] here?
A: The IC50 was 57 nM.

Q: For COc1cccc2c1C(=O)c1ccc3c(c1C2=O)C(=O)C[C@@H](C)[C@H]3O [SNA-8073-B], which Ki [2, 5] is on record?
A: The Ki was 8000 nM.

Q: With CN[C@@H]1C[C@H]2O[C@@](C)([C@@H]1OC)n1c3ccccc3c3c4c(c5c6ccccc6n2c5c31)C(=O)NC4 [Staurosporine] as the compound, how does the Ki ([2]; read-out: Potency Ki; Prolyl Oligopeptidase specific inhibitors, Table 5; cited from earlier work) read?
A: Its Ki is 700 nM.

Q: With O=CC1CCCN1C(=O)C1Cc2ccccc2N1C(=O)OCc1ccccc1 (stereo not drawn) [Z-Indolinyl-Prolinal] as the compound, how does the Ki [2, 5] read?
A: The Ki was 2.4 nM.

Q: Which Ki [2, 5] does the source give for O=C(C1CCCN1C(=O)OCc1ccccc1)N1CCC(F)C1 (stereo not drawn) [Z-Pro-3-fluoropyrrolidine] here?
A: The Ki was 0.8 nM.

Q: Which “Potency IC50” value [2, 4] does the source give for Postatin here?
A: The value was “IC50 = 0.03 μg/mL”.

Q: Which Ki [2, 5] does the source give for Propeptin here?
A: Its Ki is 700 nM.
